The target of one test is T1, hJAK2 (Homo sapiens, UniProt O60674).
T1 construct: purchased Cerep (LANCE kinase assay platform, contract assay)
The test is described as follows: Cerep LANCE kinase assay hJAK2 (S1 assay 33). It counts as biochemical. Conditions: assay number 33. On the technique in general: Time-resolved FRET reads energy transfer from a long-lived donor to a nearby acceptor.

Test [1] relates to nuclear β-catenin in C2C12 cells. The test is described as follows: cells. It counts as cell-based. Conditions: assay number 5; concentration response.
In the next test the test system is RKO. Nature of the test: cells. The class given is cell-based. Conditions: assay number 29.
In the next test the target is T2, hp70S6K1 (RPS6KB1) (Homo sapiens, UniProt P23443).
T2 construct: purchased Cerep (LANCE kinase assay platform, contract assay)
T2 sequence (P23443 whole entry): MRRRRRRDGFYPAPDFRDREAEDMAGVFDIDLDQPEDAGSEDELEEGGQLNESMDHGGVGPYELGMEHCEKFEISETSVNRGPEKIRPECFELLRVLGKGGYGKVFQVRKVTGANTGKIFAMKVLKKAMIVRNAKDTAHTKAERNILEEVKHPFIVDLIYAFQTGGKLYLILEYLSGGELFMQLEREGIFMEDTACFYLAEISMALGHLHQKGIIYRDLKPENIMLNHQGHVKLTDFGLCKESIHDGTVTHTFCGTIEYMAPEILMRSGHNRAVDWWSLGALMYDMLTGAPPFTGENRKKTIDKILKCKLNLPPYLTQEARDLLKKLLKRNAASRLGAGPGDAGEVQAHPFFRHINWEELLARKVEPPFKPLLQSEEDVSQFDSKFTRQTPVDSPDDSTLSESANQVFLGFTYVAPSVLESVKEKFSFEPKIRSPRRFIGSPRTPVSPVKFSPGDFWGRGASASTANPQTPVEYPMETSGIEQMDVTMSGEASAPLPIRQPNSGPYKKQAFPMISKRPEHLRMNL
Nature of the test: Cerep LANCE kinase assay hp70S6K1 (S1 assay 31). It counts as biochemical. Particulars: assay number 31.

The next test deals with Colo320. Nature of the test: cells. The class given is cell-based. Conditions: assay number 27.
Test [2] deals with alkaline phosphatase (ALP) activity in C2C12 cells. It counts as cell-based. Particulars: assay number 6; concentration response.
For another test, the target named is T3, hFLT3 (Homo sapiens, UniProt P36888).
T3 construct: purchased Cerep (LANCE kinase assay platform, contract assay)
T3 sequence (P36888 27-993): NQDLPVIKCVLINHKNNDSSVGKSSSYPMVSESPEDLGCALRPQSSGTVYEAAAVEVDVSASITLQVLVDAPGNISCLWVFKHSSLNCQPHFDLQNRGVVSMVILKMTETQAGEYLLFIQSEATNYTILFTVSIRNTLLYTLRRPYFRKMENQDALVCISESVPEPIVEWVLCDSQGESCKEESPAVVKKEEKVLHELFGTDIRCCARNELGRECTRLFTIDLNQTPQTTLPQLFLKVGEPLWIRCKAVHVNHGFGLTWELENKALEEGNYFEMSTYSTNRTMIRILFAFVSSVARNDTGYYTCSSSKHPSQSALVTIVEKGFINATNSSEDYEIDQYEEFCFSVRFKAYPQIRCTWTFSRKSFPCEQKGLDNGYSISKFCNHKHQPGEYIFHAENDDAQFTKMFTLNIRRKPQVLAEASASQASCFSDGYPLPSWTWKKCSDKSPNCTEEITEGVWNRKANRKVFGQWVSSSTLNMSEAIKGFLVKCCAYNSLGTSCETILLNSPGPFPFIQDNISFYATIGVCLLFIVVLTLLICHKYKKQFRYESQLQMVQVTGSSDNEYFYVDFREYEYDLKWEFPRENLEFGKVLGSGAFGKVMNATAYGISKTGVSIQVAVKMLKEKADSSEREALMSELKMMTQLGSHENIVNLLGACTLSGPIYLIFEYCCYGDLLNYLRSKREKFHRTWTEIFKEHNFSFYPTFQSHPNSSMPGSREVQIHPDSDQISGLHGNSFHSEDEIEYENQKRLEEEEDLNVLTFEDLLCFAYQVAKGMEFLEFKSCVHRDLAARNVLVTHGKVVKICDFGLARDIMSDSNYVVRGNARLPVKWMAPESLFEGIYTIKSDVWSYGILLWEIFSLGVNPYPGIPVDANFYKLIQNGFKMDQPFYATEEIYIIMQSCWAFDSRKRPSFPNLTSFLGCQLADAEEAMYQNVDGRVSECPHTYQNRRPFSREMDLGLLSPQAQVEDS
The test is described as follows: Cerep LANCE kinase assay hFLT3 (S1 assay 35). It counts as biochemical. Particulars: assay number 35.

Another test concerns HCT116. The test is described as follows: cells. Particulars: assay number 25; basal. It counts as cell-based.
In another test the test system is HT-29. Nature of the test: cells. It counts as cell-based. Conditions: assay number 28.
The subject of another test is SNU-C1. The test is described as follows: cells. It counts as cell-based. Conditions: assay number 30.
Test [3] concerns ECFC/ADSC co-culture cell nuclei number.
The subject of another test is HeLa cells. The test is described as follows: cells. The class given is cell-based. Conditions: for Hela CellCycMod PI 2N IC50/EC50: assay number 14; for Hela CellCycMod PI 4N IC50/EC50: assay number 16; for Hela CellCycMod PI MI IC50/EC50: assay number 17; for Hela CellCycMod PI Cell Number IC50/EC50: assay number 18; for Hela CellCycMod PI S Phase IC50/EC50: assay number 15.

Another test deals with SW480. The test is described as follows: cells. The class given is cell-based. Conditions: assay number 24; basal.
A further test has as its target T4, hKDR (Homo sapiens, UniProt P35968).
T4 construct: purchased Cerep (LANCE kinase assay platform, contract assay)
The test is described as follows: Cerep LANCE kinase assay hKDR (S1 assay 32). The class given is biochemical. Particulars: assay number 32.

Test [4] has as its system HCT116 cells treated with a GSK3β inhibitor. The test is described as follows: cells. Particulars: assay number 26; GSK3b inhibitor pretreated. It counts as cell-based.
The target in another test is T5, hGSK3b (Homo sapiens, UniProt P49841).
T5 construct: purchased Cerep (LANCE kinase assay platform, contract assay)
T5 sequence (P49841 whole entry): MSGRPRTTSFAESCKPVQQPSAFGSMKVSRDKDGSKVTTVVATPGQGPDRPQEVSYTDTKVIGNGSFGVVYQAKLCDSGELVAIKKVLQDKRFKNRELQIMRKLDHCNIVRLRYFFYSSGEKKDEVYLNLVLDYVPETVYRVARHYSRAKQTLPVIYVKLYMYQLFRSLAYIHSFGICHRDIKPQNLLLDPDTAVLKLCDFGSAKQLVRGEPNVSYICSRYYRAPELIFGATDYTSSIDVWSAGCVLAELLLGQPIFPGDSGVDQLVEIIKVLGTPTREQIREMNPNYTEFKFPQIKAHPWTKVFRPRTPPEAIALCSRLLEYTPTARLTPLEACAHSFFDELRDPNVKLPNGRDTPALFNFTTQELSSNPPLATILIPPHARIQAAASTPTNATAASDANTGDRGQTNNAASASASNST
The test is described as follows: Cerep LANCE kinase assay hGSK3b (S1 assay 34). It counts as biochemical. Conditions: assay number 34.

Test [5] relates to endothelial tube formation in co-cultures of ECFCs and ADSCs treated with VEGF. The test is described as follows: cells. The class given is cell-based, human.
A further test concerns DLD-1. Nature of the test: cells. The class given is cell-based. Particulars: assay number 23; basal.

T1 sequence (O60674 whole entry): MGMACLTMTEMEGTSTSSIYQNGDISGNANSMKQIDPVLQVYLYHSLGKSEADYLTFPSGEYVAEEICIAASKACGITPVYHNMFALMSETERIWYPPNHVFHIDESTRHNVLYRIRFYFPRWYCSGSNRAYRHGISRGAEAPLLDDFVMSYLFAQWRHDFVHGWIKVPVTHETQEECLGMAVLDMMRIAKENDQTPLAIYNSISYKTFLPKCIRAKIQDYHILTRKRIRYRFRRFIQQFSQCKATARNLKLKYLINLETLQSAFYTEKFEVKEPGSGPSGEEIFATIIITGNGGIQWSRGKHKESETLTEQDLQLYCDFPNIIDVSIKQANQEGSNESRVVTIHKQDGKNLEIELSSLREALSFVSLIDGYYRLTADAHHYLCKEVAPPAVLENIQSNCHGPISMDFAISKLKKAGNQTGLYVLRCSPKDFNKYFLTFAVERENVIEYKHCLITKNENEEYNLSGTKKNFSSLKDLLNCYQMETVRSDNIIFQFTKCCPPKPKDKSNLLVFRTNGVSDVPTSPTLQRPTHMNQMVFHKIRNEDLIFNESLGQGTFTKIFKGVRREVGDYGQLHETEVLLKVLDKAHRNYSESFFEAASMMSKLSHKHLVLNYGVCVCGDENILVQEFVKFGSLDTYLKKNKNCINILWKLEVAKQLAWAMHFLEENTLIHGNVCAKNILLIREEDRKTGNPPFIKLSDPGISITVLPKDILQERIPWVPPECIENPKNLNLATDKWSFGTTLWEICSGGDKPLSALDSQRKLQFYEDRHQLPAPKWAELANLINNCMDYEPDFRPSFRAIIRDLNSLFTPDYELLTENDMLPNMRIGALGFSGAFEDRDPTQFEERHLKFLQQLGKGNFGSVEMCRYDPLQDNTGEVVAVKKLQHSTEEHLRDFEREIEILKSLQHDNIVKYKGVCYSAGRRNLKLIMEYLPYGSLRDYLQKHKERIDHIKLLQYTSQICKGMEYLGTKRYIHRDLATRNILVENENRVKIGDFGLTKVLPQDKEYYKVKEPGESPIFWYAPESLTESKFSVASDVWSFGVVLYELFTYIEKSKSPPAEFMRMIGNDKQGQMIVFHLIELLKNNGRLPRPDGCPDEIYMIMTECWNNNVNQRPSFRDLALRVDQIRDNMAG
T4 sequence (P35968 20-1356): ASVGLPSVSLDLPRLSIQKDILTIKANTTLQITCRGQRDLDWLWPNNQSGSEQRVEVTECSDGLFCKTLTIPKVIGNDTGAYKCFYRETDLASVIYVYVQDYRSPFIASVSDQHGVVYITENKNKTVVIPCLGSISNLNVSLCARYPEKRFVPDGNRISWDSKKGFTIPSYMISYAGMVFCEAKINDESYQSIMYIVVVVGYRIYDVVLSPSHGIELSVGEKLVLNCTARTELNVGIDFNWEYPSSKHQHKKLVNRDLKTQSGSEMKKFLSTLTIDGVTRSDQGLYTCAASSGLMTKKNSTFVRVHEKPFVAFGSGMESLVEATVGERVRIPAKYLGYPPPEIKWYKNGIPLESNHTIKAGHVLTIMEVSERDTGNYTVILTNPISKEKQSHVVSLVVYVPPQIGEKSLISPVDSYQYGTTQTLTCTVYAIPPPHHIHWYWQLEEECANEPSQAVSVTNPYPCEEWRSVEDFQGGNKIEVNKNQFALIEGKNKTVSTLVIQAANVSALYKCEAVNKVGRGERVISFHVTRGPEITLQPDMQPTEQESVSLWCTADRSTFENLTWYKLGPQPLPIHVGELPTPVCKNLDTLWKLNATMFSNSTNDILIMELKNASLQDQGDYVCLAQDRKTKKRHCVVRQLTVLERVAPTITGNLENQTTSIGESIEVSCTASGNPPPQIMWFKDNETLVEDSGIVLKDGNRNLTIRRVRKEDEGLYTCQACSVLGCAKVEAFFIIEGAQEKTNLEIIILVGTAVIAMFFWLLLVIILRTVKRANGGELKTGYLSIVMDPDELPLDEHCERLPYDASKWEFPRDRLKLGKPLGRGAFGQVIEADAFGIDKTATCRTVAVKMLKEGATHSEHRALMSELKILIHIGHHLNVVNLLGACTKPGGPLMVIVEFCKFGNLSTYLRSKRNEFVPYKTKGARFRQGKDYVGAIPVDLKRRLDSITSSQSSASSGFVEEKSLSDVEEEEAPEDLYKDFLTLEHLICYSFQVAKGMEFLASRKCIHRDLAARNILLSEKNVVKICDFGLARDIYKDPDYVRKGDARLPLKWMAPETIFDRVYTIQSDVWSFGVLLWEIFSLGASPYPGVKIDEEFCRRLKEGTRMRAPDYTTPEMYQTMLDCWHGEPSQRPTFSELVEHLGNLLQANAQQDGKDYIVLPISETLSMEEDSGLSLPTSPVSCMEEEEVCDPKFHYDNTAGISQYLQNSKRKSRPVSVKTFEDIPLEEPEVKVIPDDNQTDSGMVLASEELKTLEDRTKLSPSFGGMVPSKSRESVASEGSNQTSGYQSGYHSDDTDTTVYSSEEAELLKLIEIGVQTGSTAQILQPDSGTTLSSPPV

In the case of `Cc1cc(C2CCCCC2)n(O)c(=O)c1.NCCO` [NCGC00017112-10], on hJAK2, the “hJAK2 LANCE IC50/EC50” value was greater than 20 µM. For the same compound, the “WntCondMedia_bCatenin C2C12 IC50/EC50” value in [1] is reported as greater than 20 µM. Besides, the “Basal_Viability ATP RKO IC50/EC50” value in the test on RKO (basal) stood at 0.2329 µM. For the same compound, at hp70S6K1 (RPS6KB1), the “hp70S6K1 LANCE IC50/EC50” value is reported as greater than 20 µM. Further, the “Basal_Viability ATP Colo 320 IC50/EC50” value in the test with Colo320 (basal) came to 0.2084 µM. Besides, the “WntCondMedia_Alk Phos C2C12 IC50/EC50” value in [2] amounted to 1.0476 µM. Further, at hFLT3, the “hFLT3 LANCE IC50/EC50” value is given as greater than 20 µM. Further, the “Basal_Viability ATP HCT116 IC50/EC50” value in the test with HCT116 stood at 0.6557 µM. Also, the “Basal_Viability ATP HT-29 IC50/EC50” value in the test on HT-29 (basal) is given as 7.035 µM. In addition, the “Basal_Viability ATP SNU-C1 IC50/EC50” value in the test with SNU-C1 (basal) was greater than 20 µM. Moreover, the “VEGF_ADSC\ECFC Angio Hoechst NucArea IC50/EC50” value in [3] is greater than 10 µM. In the test on HeLa cells, the “Hela CellCycMod PI 2N IC50/EC50” value was greater than 10 µM, the “Hela CellCycMod PI 4N IC50/EC50” value is greater than 10 µM, the “Hela CellCycMod PI MI IC50/EC50” value is greater than 10 µM and the “Hela CellCycMod PI Cell Number IC50/EC50” value worked out at 0.5693 µM. Also, in the test with SW480, the “Basal_Viability ATP SW480 IC50/EC50” value is on record as 0.469 µM. In addition, the “hKDR LANCE IC50/EC50” value on hKDR was greater than 20 µM. In addition, the “GSK3b inh pretreated_Viability ATP HCT116 IC50/EC50” value in test [4] came to 0.3898 µM. In addition, at hGSK3b, the “hGSK3b LANCE IC50/EC50” value is greater than 20 µM. Besides, the “VEGF_ADSC\ECFC Angio CD31 TubeArea IC50/EC50” value in test [5] is listed as greater than 10 µM. Besides, the “Basal_Viability ATP DLD-1 IC50/EC50” value with DLD-1 is listed as 0.316 µM.

For the compound `O=C(CCl)c1ccc(Cl)cc1Cl` [NCGC00091258-05], the “hJAK2 LANCE IC50/EC50” value at hJAK2 is given as greater than 20 µM. In addition, the “WntCondMedia_bCatenin C2C12 IC50/EC50” value in [1] worked out at 0.3728 µM. Besides, in the test with RKO (basal), the “Basal_Viability ATP RKO IC50/EC50” value came out at 4.299 µM. Moreover, the “hp70S6K1 LANCE IC50/EC50” value on hp70S6K1 (RPS6KB1) was greater than 20 µM. In addition, the “Basal_Viability ATP Colo 320 IC50/EC50” value in the test on Colo320 (basal) is listed as 0.5301 µM. In addition, the “WntCondMedia_Alk Phos C2C12 IC50/EC50” value in [2] is on record as greater than 20 µM. Further, at hFLT3, the “hFLT3 LANCE IC50/EC50” value is greater than 20 µM. For the same compound, in the test on HCT116, the “Basal_Viability ATP HCT116 IC50/EC50” value was found to be 6.3 µM. In the test with HT-29 (basal), the “Basal_Viability ATP HT-29 IC50/EC50” value turned out to be 8.5217 µM. The “Basal_Viability ATP SNU-C1 IC50/EC50” value with SNU-C1 (basal) was determined as 2.9752 µM. For the same compound, in test [3], the “VEGF_ADSC\ECFC Angio Hoechst NucArea IC50/EC50” value came to 6.1739 µM. Also, in the test with HeLa cells, the “Hela CellCycMod PI 2N IC50/EC50” value turned out to be 0.514 µM, the “Hela CellCycMod PI S Phase IC50/EC50” value is listed as greater than 10 µM, the “Hela CellCycMod PI 4N IC50/EC50” value is recorded as greater than 10 µM and the “Hela CellCycMod PI MI IC50/EC50” value is 0.541 µM. The “Hela CellCycMod PI Cell Number IC50/EC50” value in the test with HeLa cells is 0.35 µM. Moreover, the “Basal_Viability ATP SW480 IC50/EC50” value in the test with SW480 came out at 1.249 µM. Also, on hKDR, the “hKDR LANCE IC50/EC50” value is on record as greater than 20 µM. Besides, the “GSK3b inh pretreated_Viability ATP HCT116 IC50/EC50” value in test [4] is given as 1.098 µM. For the same compound, the “hGSK3b LANCE IC50/EC50” value on hGSK3b is reported as greater than 20 µM. In addition, in test [5], the “VEGF_ADSC\ECFC Angio CD31 TubeArea IC50/EC50” value was found to be 2.4875 µM. For the same compound, in the test with DLD-1, the “Basal_Viability ATP DLD-1 IC50/EC50” value was found to be 2.0651 µM.

Consider `CC[C@]1(O)C[C@@H]2CN(CCc3c([nH]c4ccccc34)[C@@](C(=O)OC)(c3cc4c(cc3OC)N(C)[C@H]3[C@@](O)(C(=O)OC)[C@H](OC(C)=O)[C@]5(CC)C=CCN6CC[C@]43[C@@H]65)C2)C1.O=S(=O)(O)O` [NCGC00263548-01], for which the “hJAK2 LANCE IC50/EC50” value on hJAK2 is recorded as greater than 20 µM. Moreover, in test [1], the “WntCondMedia_bCatenin C2C12 IC50/EC50” value is reported as 0.0058 µM. Moreover, the “Basal_Viability ATP RKO IC50/EC50” value in the test on RKO is on record as 0.001 µM. Besides, the “hp70S6K1 LANCE IC50/EC50” value at hp70S6K1 (RPS6KB1) is greater than 20 µM. In addition, the “Basal_Viability ATP Colo 320 IC50/EC50” value in the test on Colo320 came out at 0.001 µM. In addition, the “WntCondMedia_Alk Phos C2C12 IC50/EC50” value in test [2] was determined as 0.0089 µM. Further, the “hFLT3 LANCE IC50/EC50” value at hFLT3 is reported as greater than 20 µM. In the test with HCT116, the “Basal_Viability ATP HCT116 IC50/EC50” value is given as 0.001 µM. For the same compound, in the test on HT-29, the “Basal_Viability ATP HT-29 IC50/EC50” value was found to be 0.001 µM. Further, the “Basal_Viability ATP SNU-C1 IC50/EC50” value in the test on SNU-C1 is listed as greater than 20 µM. Moreover, in test [3], the “VEGF_ADSC\ECFC Angio Hoechst NucArea IC50/EC50” value is greater than 10 µM. Moreover, in the test with HeLa cells, the “Hela CellCycMod PI 2N IC50/EC50” value is 0.0033 µM, the “Hela CellCycMod PI S Phase IC50/EC50” value was greater than 10 µM, the “Hela CellCycMod PI 4N IC50/EC50” value is reported as 0.0032 µM and the “Hela CellCycMod PI MI IC50/EC50” value was found to be 0.0032 µM. For the same compound, in the test with HeLa cells, the “Hela CellCycMod PI Cell Number IC50/EC50” value stood at 0.0026 µM. In addition, at hKDR, the “hKDR LANCE IC50/EC50” value is recorded as greater than 20 µM. In [4], the “GSK3b inh pretreated_Viability ATP HCT116 IC50/EC50” value was 0.001 µM. Besides, at hGSK3b, the “hGSK3b LANCE IC50/EC50” value was greater than 20 µM. In [5], the “VEGF_ADSC\ECFC Angio CD31 TubeArea IC50/EC50” value is 0.0023 µM.

Source of the values: publication PMC4503722, “Novel Phenotypic Outcomes Identified for a Public Collection of Approved Drugs from a Publicly Accessible Panel of Assays” (PLoS ONE, 2015).
